The text below walks through data of PubChem BioAssay (NCI).

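1) Cells in 96-well plates. 2) Compound, 48 h, 5 concentrations. 3) Linear interpolation between surrounding doses. 4) Unreached endpoint = highest concentration. GI50 marks 50% less growth. TGI marks complete inhibition of growth.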 Some results are limits rather than exact numbers.

Among the test systems are HCT-15 colon; HOP-62 NSCLC; HOP-92 NSCLC; NCI-H522 lung; OVCAR-3 ovarian; RXF 393 renal; SF-539 CNS; SW-620 colon; TK-10 renal; U251 CNS.
Holding throughout (assay): NCI anticancer screen, dose series, 48 h

For `O=Nc1c(-c2cccc([N+](=O)[O-])c2)nc2cnccn12`, the TGI with HCT-15 colon was 30.7 µM; in the assay with HOP-62 NSCLC, 90.1 µM; in the assay with HOP-92 NSCLC, 38.4 µM; in the assay on NCI-H522 lung it was 33.3 µM; with OVCAR-3 ovarian, 37.4 µM; in the assay on RXF 393 renal, greater than 100 µM. In addition, the TGI in the assay with SF-539 CNS worked out at 59.1 µM; with SW-620 colon, 35.7 µM; with TK-10 renal it was 26.3 µM; with U251 CNS, 42.4 µM.
Consider `Nc1ccc(-c2nc3ccccc3[nH]2)c(O)c1`, for which the GI50 is greater than 100 µM with HCT-15 colon; 60.5 µM in the assay on HOP-62 NSCLC; 5.82 µM in the assay with HOP-92 NSCLC; greater than 100 µM in the assay on NCI-H522 lung; 40.4 µM in the assay on OVCAR-3 ovarian; 35.4 µM in the assay on RXF 393 renal. The GI50 in the assay with SF-539 CNS was 17.3 µM; with SW-620 colon, 29.1 µM; in the assay with TK-10 renal, 17.8 µM; in the assay with U251 CNS, 60.3 µM. Also, the TGI was greater than 100 µM in the assay on HCT-15 colon; greater than 100 µM in the assay with HOP-62 NSCLC; 45.2 µM in the assay with HOP-92 NSCLC; greater than 100 µM in the assay with NCI-H522 lung; greater than 100 µM in the assay on OVCAR-3 ovarian; greater than 100 µM with RXF 393 renal. The TGI in the assay on SF-539 CNS is 53.1 µM; with SW-620 colon, greater than 100 µM; in the assay with TK-10 renal it was 84 µM; with U251 CNS, greater than 100 µM.
Turning to `O=C1O[C@H](C(Cl)(Cl)Cl)N2CCCC12` (some centres not stated), the TGI with HCT-15 colon, in the assay on HOP-62 NSCLC, with HOP-92 NSCLC, in the assay on NCI-H522 lung, in the assay with OVCAR-3 ovarian and in the assay with RXF 393 renal was greater than 100 µM throughout. Also, the TGI in the assay with SF-539 CNS, in the assay with SW-620 colon, with TK-10 renal and with U251 CNS was greater than 100 µM each time.
In the case of `N#Cc1c2ccccc2c2n1-c1ccccc1OC(c1ccccc1)C2=O` (configuration not stated), the GI50 in the assay with HCT-15 colon was 3.12 µM; in the assay on HOP-62 NSCLC, 3.84 µM; in the assay on HOP-92 NSCLC, 2.01 µM; in the assay on NCI-H522 lung, 2.06 µM; in the assay on OVCAR-3 ovarian, 5.1 µM; in the assay with RXF 393 renal, 3.15 µM. For the same compound, the GI50 in the assay with SF-539 CNS was 4.29 µM; in the assay with SW-620 colon, 3.9 µM; in the assay on TK-10 renal it was 4.9 µM; in the assay on U251 CNS it was 3.17 µM. Also, the TGI in the assay on HCT-15 colon is 12.5 µM; in the assay with HOP-62 NSCLC, 15.8 µM; with HOP-92 NSCLC, 5.88 µM; in the assay on NCI-H522 lung it was 4.72 µM; in the assay on OVCAR-3 ovarian, 49.7 µM; in the assay on RXF 393 renal it was 9.55 µM. The TGI in the assay with SF-539 CNS was 16.8 µM; in the assay on SW-620 colon, 16.7 µM; in the assay with TK-10 renal it was 20.7 µM; with U251 CNS, 15.7 µM.
Consider `COC(=O)Nc1nc2ccc(Oc3ccc(NC(=O)Nc4cccc(Br)c4)cc3)cc2[nH]1`, for which the GI50 with HCT-15 colon is 2.3 µM; in the assay with HOP-62 NSCLC it was 1.24 µM; with HOP-92 NSCLC, 3.33 µM; in the assay with NCI-H522 lung, 0.351 µM; in the assay on OVCAR-3 ovarian, 1.07 µM; in the assay on RXF 393 renal, 1.92 µM. For the same compound, the GI50 is 2.04 µM with SF-539 CNS, 1.48 µM with SW-620 colon, 4.66 µM in the assay with TK-10 renal and 1.78 µM with U251 CNS. In addition, the TGI was greater than 25 µM in the assay with HCT-15 colon; 8.67 µM in the assay on HOP-62 NSCLC; 12.7 µM in the assay with HOP-92 NSCLC; 2.7 µM in the assay on NCI-H522 lung; 3.99 µM in the assay on OVCAR-3 ovarian; 11.9 µM in the assay with RXF 393 renal. Besides, the TGI in the assay with SF-539 CNS was greater than 20.8 µM; with SW-620 colon, 17.6 µM; with TK-10 renal, 12 µM; with U251 CNS, 5.68 µM.
`Cc1ccc(C(=O)O/N=C2/CCCCC2CN(C)C)cc1` (configuration not stated): the TGI in the assay with HCT-15 colon, in the assay on HOP-62 NSCLC, in the assay with HOP-92 NSCLC, in the assay with NCI-H522 lung, in the assay with OVCAR-3 ovarian and in the assay on RXF 393 renal was greater than 100 µM in each case. Also, the TGI with SF-539 CNS, in the assay on TK-10 renal and with U251 CNS was greater than 100 µM each time.
`C[N+](C)([O-])CCCNc1c2ccccc2nc2cccc([N+](=O)[O-])c12`: the TGI in the assay with HCT-15 colon came to 4.93 µM; in the assay with HOP-62 NSCLC, 3.23 µM; in the assay on HOP-92 NSCLC, 0.806 µM; with NCI-H522 lung it was 0.67 µM; in the assay with OVCAR-3 ovarian it was 5.65 µM; in the assay on RXF 393 renal, 0.349 µM. For the same compound, the TGI in the assay on SF-539 CNS is 3.88 µM; in the assay on TK-10 renal, 8.19 µM; in the assay with U251 CNS, 2.24 µM.
With `O=c1[nH]c(=O)n(C2CC(O)C(CO)O2)cc1C(OCC(F)(F)F)OCC(F)(F)F` (configuration not stated), the TGI in the assay with HOP-62 NSCLC, in the assay on HOP-92 NSCLC, in the assay on NCI-H522 lung, in the assay with OVCAR-3 ovarian, in the assay with RXF 393 renal and in the assay on SF-539 CNS was greater than 100 µM throughout. Further, the TGI with SW-620 colon, in the assay with TK-10 renal and in the assay with U251 CNS was greater than 100 µM in each case.
